From patent publication US20120270237A9, “METHODS FOR THE IDENTIFICATION OF KINASE INTERACTING MOLECULES AND FOR THE PURIFICATION OF KINASE PROTEINS” (Cellzone AG, priority 2009, published 2012)

Assays:
Assay in all cases: Kinobeads competition binding, L-363 cell lysate
Settings in all cases: 10 μM free compound, L-363 lysate
PAK4 = PAK4 (Homo sapiens, UniProt O96013); set-up: endogenous in cells; host or cells: L-363 (MG132-treated)
Experimental: (§1) To one aliquot of cell lysate 10 μM of the free compound (FIG. 3, CZC31326) was added and allowed to bind to proteins in the lysate. Then the affinity matrix with the immobilized compound was added to capture proteins that were not interacting with the previously added free compound. Beads were separated from the lysate and bead bound proteins were eluted in SDS sample buffer and subsequently separated by SDS-Polyacrylamide gel electrophoresis (FIG. 8). Suitable gel bands were cut out and subjected to in-gel proteolytic digestion with trypsin. The second lysate aliquot was processed identically, however no free compound was added (DMSO solvent control). Peptides originating from samples 1 and 2 were labeled with iTRAQ reagents (iTRAQ 114 and iTRAQ 117) and the combined samples were analyzed with a nano-flow liquid chromatography system coupled online to a tandem mass spectrometer (LC-MS/MS) experiment followed by iTRAQ reporter ion quantification in the MS/MS spectra as described in Example 2.
(§2) For this experiment the human plasma cell leukaemia line L-363 was used (German Collection of Microorganisms and Cell Cultures, DSMZ number ACC49, Braunschweig, Germany). Cells were treated for three hours with 20 μM of the proteasome inhibitor MG132 (Z-Leu-Leu-Leu-al, Sigma C2211) prior to cell harvesting.

NEK3 = molecular target: T1, NEK3 (Homo sapiens, UniProt P51956); set-up: endogenous in cells; host or cells: L-363 (MG132-treated)
T1 sequence (P51956 1-506): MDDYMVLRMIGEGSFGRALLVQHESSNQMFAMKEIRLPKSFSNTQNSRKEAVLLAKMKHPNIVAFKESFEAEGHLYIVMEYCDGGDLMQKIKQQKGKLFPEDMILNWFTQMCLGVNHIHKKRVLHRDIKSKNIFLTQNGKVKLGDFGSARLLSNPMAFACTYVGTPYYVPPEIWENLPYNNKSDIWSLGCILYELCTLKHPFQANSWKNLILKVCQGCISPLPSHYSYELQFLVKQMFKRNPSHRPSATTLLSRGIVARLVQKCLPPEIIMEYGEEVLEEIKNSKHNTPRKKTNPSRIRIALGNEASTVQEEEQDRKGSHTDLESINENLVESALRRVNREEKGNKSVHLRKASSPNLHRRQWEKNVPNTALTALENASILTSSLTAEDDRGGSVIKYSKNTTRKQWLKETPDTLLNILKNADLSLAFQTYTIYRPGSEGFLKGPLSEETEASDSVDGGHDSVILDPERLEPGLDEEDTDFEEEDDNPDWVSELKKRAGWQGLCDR
Experimental: as §1, §2

NEK9 = molecular target: T2, NEK9 (Homo sapiens, UniProt Q8TD19); set-up: endogenous in cells; host or cells: L-363 (MG132-treated)
T2 sequence (Q8TD19 1-979): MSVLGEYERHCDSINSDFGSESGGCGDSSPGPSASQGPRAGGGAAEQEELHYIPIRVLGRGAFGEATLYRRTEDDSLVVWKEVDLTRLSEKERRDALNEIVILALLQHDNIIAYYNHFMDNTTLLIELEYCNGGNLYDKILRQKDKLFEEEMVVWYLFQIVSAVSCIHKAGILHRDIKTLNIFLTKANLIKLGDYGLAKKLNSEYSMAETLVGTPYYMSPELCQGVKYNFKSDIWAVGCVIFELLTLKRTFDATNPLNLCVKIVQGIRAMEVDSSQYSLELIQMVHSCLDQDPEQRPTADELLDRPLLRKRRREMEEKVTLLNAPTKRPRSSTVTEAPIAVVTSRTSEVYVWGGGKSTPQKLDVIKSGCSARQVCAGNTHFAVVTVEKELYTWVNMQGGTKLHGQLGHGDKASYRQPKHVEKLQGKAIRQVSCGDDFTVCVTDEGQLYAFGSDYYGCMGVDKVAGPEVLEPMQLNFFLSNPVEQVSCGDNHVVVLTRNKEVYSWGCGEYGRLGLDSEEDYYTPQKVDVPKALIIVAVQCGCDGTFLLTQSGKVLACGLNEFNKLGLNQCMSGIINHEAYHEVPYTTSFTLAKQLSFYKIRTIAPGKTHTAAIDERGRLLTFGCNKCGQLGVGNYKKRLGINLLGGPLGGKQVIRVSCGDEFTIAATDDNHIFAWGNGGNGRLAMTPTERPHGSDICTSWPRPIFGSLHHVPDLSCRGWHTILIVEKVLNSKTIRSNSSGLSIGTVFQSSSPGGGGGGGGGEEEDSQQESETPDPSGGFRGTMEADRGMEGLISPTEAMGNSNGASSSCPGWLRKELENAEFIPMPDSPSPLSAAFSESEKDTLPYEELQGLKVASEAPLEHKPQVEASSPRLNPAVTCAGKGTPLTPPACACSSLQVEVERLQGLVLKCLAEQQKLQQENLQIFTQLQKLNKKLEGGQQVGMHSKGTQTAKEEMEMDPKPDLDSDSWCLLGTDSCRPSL
Experimental: as §1, §2

MAP3K4 = MAP3K4 (Homo sapiens, UniProt Q9Y6R4); set-up: endogenous in cells; host or cells: L-363 cells (DSMZ ACC49), treated with MG132 before harvest
Experimental: as §1, §2

Chain of MAP3K4 (Q9Y6R4 whole entry): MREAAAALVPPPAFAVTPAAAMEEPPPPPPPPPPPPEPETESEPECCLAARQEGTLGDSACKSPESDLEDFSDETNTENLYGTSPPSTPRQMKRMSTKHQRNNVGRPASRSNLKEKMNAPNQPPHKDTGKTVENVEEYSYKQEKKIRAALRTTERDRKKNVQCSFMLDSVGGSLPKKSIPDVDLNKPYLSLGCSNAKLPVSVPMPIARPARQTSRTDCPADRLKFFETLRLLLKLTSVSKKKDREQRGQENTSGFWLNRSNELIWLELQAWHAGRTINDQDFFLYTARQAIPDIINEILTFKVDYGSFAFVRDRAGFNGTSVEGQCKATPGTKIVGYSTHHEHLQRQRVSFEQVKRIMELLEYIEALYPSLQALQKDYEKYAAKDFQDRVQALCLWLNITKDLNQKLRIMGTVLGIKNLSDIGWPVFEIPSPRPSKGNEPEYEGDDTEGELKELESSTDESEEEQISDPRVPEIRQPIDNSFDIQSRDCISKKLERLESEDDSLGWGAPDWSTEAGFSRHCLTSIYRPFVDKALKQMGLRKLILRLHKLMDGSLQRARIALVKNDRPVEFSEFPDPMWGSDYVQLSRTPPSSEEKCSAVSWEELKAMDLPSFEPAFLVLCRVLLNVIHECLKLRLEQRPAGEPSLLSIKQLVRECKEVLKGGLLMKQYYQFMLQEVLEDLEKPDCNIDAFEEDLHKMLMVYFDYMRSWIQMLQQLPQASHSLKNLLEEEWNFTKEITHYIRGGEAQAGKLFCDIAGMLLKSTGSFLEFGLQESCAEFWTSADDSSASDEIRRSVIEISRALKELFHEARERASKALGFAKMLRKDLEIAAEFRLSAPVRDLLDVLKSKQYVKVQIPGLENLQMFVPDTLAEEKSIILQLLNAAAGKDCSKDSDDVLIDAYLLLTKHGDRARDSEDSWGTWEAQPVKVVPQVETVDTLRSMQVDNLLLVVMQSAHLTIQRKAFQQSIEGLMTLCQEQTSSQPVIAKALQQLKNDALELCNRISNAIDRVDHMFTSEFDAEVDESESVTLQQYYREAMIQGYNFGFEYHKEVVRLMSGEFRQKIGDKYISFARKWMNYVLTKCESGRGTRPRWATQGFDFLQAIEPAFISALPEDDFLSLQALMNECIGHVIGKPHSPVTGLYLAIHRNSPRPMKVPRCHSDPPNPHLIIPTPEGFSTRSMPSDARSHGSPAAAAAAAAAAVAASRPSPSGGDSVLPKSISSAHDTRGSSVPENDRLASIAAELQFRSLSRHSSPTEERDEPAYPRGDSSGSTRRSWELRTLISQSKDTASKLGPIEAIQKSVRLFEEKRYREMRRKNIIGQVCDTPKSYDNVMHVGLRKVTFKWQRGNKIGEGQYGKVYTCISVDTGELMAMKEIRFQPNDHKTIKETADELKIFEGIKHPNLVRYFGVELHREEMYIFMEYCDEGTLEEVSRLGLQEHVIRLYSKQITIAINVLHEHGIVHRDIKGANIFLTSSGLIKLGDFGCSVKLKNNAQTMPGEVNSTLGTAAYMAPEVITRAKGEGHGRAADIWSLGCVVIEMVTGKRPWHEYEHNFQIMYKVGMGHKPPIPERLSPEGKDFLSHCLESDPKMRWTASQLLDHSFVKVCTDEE
Chain of PAK4 (O96013 whole entry): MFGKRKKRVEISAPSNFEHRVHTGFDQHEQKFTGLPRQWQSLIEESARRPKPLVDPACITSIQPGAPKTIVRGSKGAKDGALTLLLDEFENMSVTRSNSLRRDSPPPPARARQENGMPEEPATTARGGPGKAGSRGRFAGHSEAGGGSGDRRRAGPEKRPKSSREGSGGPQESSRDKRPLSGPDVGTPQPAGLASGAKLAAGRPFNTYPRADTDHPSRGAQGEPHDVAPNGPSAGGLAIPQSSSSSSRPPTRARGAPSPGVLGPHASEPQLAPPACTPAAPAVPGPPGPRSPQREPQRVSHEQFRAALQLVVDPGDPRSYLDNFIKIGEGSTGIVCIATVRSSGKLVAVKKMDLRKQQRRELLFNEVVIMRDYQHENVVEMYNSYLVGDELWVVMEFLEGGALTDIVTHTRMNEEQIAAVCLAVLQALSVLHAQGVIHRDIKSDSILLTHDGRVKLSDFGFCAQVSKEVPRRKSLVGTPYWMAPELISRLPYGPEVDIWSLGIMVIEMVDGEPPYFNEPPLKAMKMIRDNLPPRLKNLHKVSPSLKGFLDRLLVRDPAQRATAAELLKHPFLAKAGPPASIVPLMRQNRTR

With `CS(=O)(=O)Nc1ccccc1Nc1nc(Nc2cccc(OCCN)c2)ncc1Cl` [CZC31326, N-(2-(2-(3-(2-aminoethoxy)phenylamino)-5-chloropyrimidin-4-ylamino)phenyl)methanesulfonamide] the inhibition at 10 µM (PAK4) was 97.3%, the inhibition at 10 µM (NEK3) was 96.8% and the inhibition at 10 µM (NEK9) was 92.4%. For the same molecule, the inhibition at 10 µM (MAP3K4) was 95.8%.
